Assay results as given in the NIST ThermoML archive (doi:10.1021/je400250u).

Key:
[1] = refractive index (Na D-line) (dimensionless); xn = mol fraction of the nth substance listed; conditions: 100 kPa, Liquid, Standard Abbe refractometry
[2] = xn = mol fraction of the nth substance listed; conditions: 100 kPa, Liquid; for viscosity: Capillary tube (Ostwald / Ubbelohde) method; for mass density: Vibrating tube method

C1CC[C@H]2CCCC[C@H]2C1 [cis-decahydronaphthalene] + CCCCCCCCCC
Conditions | mass density, [2] [kg/m3] | refractive index, [1] | viscosity, [2] [mPa·s]
293.15 K, x1 = 0.1006 | 744.89 | – | 1.006
293.15 K, x1 = 0.2055 | 759.79 | – | 1.09
293.15 K, x1 = 0.3009 | 773.95 | – | 1.197
293.15 K, x1 = 0.3965 | 788.64 | – | 1.366
293.15 K, x1 = 0.508 | 806.55 | – | 1.481
293.15 K, x1 = 0.6026 | 822.35 | – | 1.669
293.15 K, x1 = 0.7012 | 839.6 | – | 1.954
293.15 K, x1 = 0.7763 | 853.24 | – | 2.163
293.15 K, x1 = 0.8985 | 876.48 | – | 2.647
293.15 K, x1 = 1 | 896.85 | – | 3.355
298.15 K, x1 = 0.1006 | 741.18 | 1.415 | 0.933
298.15 K, x1 = 0.2055 | 756.08 | 1.421 | 1.015
298.15 K, x1 = 0.3009 | 770.21 | 1.427 | 1.107
298.15 K, x1 = 0.3965 | 784.9 | 1.4326 | 1.26
298.15 K, x1 = 0.508 | 802.83 | 1.4403 | 1.361
298.15 K, x1 = 0.6026 | 818.62 | 1.4464 | 1.53
298.15 K, x1 = 0.7012 | 835.86 | 1.4539 | 1.781
298.15 K, x1 = 0.7763 | 849.49 | 1.4594 | 1.964
298.15 K, x1 = 0.8985 | 872.71 | 1.4688 | 2.39
298.15 K, x1 = 1 | 893.06 | 1.4776 | 3.011
303.15 K, x1 = 0.1006 | 737.4 | – | 0.868
303.15 K, x1 = 0.2055 | 752.31 | – | 0.939
303.15 K, x1 = 0.3009 | 766.45 | – | 1.022
303.15 K, x1 = 0.3965 | 781.15 | – | 1.162
303.15 K, x1 = 0.508 | 799.07 | – | 1.255
303.15 K, x1 = 0.6026 | 814.86 | – | 1.406
303.15 K, x1 = 0.7012 | 832.1 | – | 1.633
303.15 K, x1 = 0.7763 | 845.72 | – | 1.792
303.15 K, x1 = 0.8985 | 868.93 | – | 2.168
303.15 K, x1 = 1 | 889.26 | – | 2.718
308.15 K, x1 = 0.1006 | 733.61 | 1.4109 | 0.812
308.15 K, x1 = 0.2055 | 748.53 | 1.4167 | 0.876
308.15 K, x1 = 0.3009 | 762.68 | 1.4227 | 0.95
308.15 K, x1 = 0.3965 | 777.38 | 1.4284 | 1.076
308.15 K, x1 = 0.508 | 795.31 | 1.4358 | 1.162
308.15 K, x1 = 0.6026 | 811.1 | 1.4422 | 1.298
308.15 K, x1 = 0.7012 | 828.33 | 1.4496 | 1.503
308.15 K, x1 = 0.7763 | 841.96 | 1.455 | 1.644
308.15 K, x1 = 0.8985 | 865.15 | 1.4647 | 1.979
308.15 K, x1 = 1 | 885.46 | 1.4736 | 2.47
313.15 K, x1 = 0.1006 | 729.8 | – | 0.76
313.15 K, x1 = 0.2055 | 744.74 | – | 0.82
313.15 K, x1 = 0.3009 | 758.9 | – | 0.887
313.15 K, x1 = 0.3965 | 773.6 | – | 0.996
313.15 K, x1 = 0.508 | 791.54 | – | 1.079
313.15 K, x1 = 0.6026 | 807.33 | – | 1.204
313.15 K, x1 = 0.7012 | 824.56 | – | 1.389
313.15 K, x1 = 0.7763 | 838.18 | – | 1.517
313.15 K, x1 = 0.8985 | 861.37 | – | 1.811
313.15 K, x1 = 1 | 881.65 | – | 2.252
318.15 K, x1 = 0.1006 | 725.99 | 1.4065 | 0.715
318.15 K, x1 = 0.2055 | 740.94 | 1.4127 | 0.771
318.15 K, x1 = 0.3009 | 755.1 | 1.4188 | 0.832
318.15 K, x1 = 0.3965 | 769.81 | 1.4251 | 0.924
318.15 K, x1 = 0.508 | 787.76 | 1.4319 | 1.007
318.15 K, x1 = 0.6026 | 803.55 | 1.4384 | 1.12
318.15 K, x1 = 0.7012 | 820.78 | 1.4456 | 1.286
318.15 K, x1 = 0.7763 | 834.4 | 1.4515 | 1.401
318.15 K, x1 = 0.8985 | 857.58 | 1.4611 | 1.666
318.15 K, x1 = 1 | 877.85 | 1.4696 | 2.063
323.15 K, x1 = 0.1006 | 722.16 | – | 0.674
323.15 K, x1 = 0.2055 | 737.12 | – | 0.725
323.15 K, x1 = 0.3009 | 751.29 | – | 0.781
323.15 K, x1 = 0.3965 | 766.01 | – | 0.859
323.15 K, x1 = 0.508 | 783.96 | – | 0.941
323.15 K, x1 = 0.6026 | 799.76 | – | 1.045
323.15 K, x1 = 0.7012 | 816.99 | – | 1.193
323.15 K, x1 = 0.7763 | 830.61 | – | 1.299
323.15 K, x1 = 0.8985 | 853.78 | – | 1.539
323.15 K, x1 = 1 | 874.05 | – | 1.898
